The target of data set [1] is T1, aromatase from human placental microsomes (Homo sapiens, UniProt P11511).
T1 construct: in human placenta microsomes; from tissue; host or cells: human placenta, microsomes
T1 sequence (P11511 1-503): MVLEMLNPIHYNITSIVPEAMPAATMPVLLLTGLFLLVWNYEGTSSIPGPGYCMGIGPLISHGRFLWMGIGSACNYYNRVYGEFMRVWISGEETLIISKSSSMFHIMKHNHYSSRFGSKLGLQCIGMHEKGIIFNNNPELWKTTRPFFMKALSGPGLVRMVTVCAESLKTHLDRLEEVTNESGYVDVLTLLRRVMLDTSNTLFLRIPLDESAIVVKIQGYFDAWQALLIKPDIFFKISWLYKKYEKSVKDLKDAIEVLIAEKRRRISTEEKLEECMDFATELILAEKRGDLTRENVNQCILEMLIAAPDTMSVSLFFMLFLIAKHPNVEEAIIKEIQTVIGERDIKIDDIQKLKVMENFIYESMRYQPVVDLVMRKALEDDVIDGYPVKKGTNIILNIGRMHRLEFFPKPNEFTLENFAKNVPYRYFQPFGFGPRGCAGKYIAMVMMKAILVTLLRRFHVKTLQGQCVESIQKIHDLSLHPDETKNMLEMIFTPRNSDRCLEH
The experiment in a line: In vitro inhibition of aromatase in human placenta microsomes. The settings on record: [1,2-3H] androstenedione. The format is biochemical. The protocol:
(b) Inhibition of aromatase obtained from human placenta
The activity was measured in accordance with the method described in Endocrine Research, 16 (2) 253 (1990).
The inhibition activity of the compound was determined based on the inhibition of ^3 H2 O to be released from [1,2-^3 H] androstenedione in human placenta microsomes.
1. In vitro inhibition of aromatase in human placenta microsomes:
IC50 value for ex vivo inhibition of aromatase from human placental microsomes was obtained in accordance with the above-mentioned experimental method (1-b), and the results obtained are shown in Table 1.

Data set [2] has as its system aldosterone production. The experiment in a line: In vivo inhibition of aldosterone production in rats (ACTH-stimulated blood aldosterone). The arrangement: species or system rat. The settings on record: 100 mg/kg, five rats, one-way ANOVA. As for the experimental part:
(b) In vivo inhibition of aldosterone production in rats:
The inhibitory activity was measured in accordance with the method described in J. Steroid Biochem., 34 567 (1989). The inhibitory activity of a test compound was determined based on inhibition of the blood aldosterone to be increased by stimulation by ACTH in rats. The amount of aldosterone was measured by RIA.
3. In vivo inhibition of aldosterone production in rats:
By the above-mentioned experimental method (4-b), aldosterone production inhibitory activity in rats was measured.
The statistical significance of value was analyzed by using one-way ANOVA. The results mean that the compounds of the present invention are highly safe compounds with few harmful side effects also in the in vivo test as well.

For data set [3], the system named is cortisol production, rabbit adrenal cultured cells. Nature of the data set: In vitro inhibition of cortisol production (ACTH-stimulated rabbit adrenal cultured cells). The format is cell-based. The following applies: Oryctolagus cuniculus. As for the experimental part: (5) In vitro inhibition of cortisol production:
The inhibitory activity was measured in accordance with the method described in Endocrinology, 114 (2) 486 (1984). The inhibitory activity of a test compound was determined based on inhibition of the cortisol production produced by stimulation of first-generation of rabit adrenal cultured cells by ACTH. The amount of cortisol was measured by RIA.
4. In vitro inhibition of cortisol production in rabbit:
IC50 value of the compounds for in vitro inhibition of cortisol production was obtained by the above-mentioned experimental method (5), and the results obtained are shown in Table 3.

Data set [4] addresses T2, rat aromatase (rat ovarian microsomes) (Rattus norvegicus, UniProt P22443).
T2 construct: in rat ovarian microsomes; from tissue; host or cells: rat ovary, microsomes
T2 sequence (P22443 1-508): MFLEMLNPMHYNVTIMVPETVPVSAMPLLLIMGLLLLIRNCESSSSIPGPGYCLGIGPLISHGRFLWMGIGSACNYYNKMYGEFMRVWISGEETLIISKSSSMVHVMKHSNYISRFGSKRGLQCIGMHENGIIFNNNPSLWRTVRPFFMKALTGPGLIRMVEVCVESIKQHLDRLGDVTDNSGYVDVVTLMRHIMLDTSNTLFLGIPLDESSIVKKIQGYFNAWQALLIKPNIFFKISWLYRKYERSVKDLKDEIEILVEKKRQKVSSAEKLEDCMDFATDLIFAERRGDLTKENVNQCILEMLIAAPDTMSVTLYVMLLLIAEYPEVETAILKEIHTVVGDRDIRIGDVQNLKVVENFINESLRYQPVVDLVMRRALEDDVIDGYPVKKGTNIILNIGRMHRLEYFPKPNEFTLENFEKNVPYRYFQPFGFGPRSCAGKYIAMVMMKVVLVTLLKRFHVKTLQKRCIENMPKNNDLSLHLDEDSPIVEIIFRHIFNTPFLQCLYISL
Nature of the data set: In vitro inhibition of aromatase obtained from rat ovary. The format is biochemical. As for the experimental part: (a) Inhibition of aromatase obtained from rat ovary:
The activity was measured in accordance with the method described in J. Biol. Chem., 249 5364 (1974).
The IC50 value of the test compound on aromatase inhibition was determined based on inhibition of ^3 H2 O to be released from [1,2-^3 H] androstenedione in rat ovarian microsomes.
(§1) 2. Selectivity of In vitro inhibition of rat ovarian aromatase and in vitro aldosterone production in rat:
(§2) IC50 values for in vitro inhibition of rat aromatase and […] inhibition of rat aldosterone production were measured in accordance with the above-mentioned experimental methods (1-a) and (4-a), respectively. The selectivity indicates a ratio of IC50 value for rat aldosterone production to IC50 value for rat aromatase.

For data set [5], the system named is aldosterone production, rat adrenal cultured cells. Nature of the data set: In vitro inhibition of aldosterone production (ACTH-stimulated rat adrenal cultured cells). It is filed as cell-based. The settings on record: read-out: IC50, Rat aldosterone inhibitory activity (B). As for the experimental part:
(a) In vitro inhibition of aldosterone production:
The activity was measured in accordance with the method described in J. Vet. Pharmacol. Therap., 11 345 (1988). The inhibition activity of the test compound was determined based on the inhibition of aldosterone production produced by stimulation of first-generation of rat adrenal cultured cells by ACTH. The amount of aldosterone was measured by RIA.
as §1, §2

Data set [6] is described as follows: Metabolism: plasma concentration of the non-changed compound after oral administration to rats. It is filed as in vivo. The settings on record: rat, 3 mg/kg oral. An excerpt:
From the results, it is understood that the compound of the present invention has an excellent oral absorbability and that the effect of the absorbed compound lasts long. Thus, the compound has a good profile as a medicine.

As usually defined, the IC50 is the concentration that inhibits the measured activity by half.

Regarding `O=[N+]([O-])c1ccc(CN(c2ccc([N+](=O)[O-])cc2)n2cnnc2)cc1` [Example 10, 4-[N-(4-nitrobenzyl)-N-(4-nitrophenyl)amino]-4H-1,2,4-triazole], the half-maximal inhibitory concentration (IC50) worked out at 0.11 nM in data set [1] and 7000 nM in data set [3]. The “inhibition of aldosterone production in rats (significance)” value (“inhibition … (significance)” for short) in data set [2] is on record as “did not inhibit aldosterone production significantly”.
`O=[N+]([O-])c1ccc(N(Cc2ccc(Br)cc2)n2cnnc2)cc1` [Example 12, 4-[N-(4-bromobenzyl)-N-(4-nitrophenyl)amino]-4H-1,2,4-triazole] showed an IC50 in data set [1] of 0.03 nM. Also, the “inhibition … (significance)” value in data set [2] is on record as “did not inhibit aldosterone production significantly”.
On to `N#Cc1ccc(N(Cc2ccc(Br)cc2)n2cnnc2)cc1` [Example 15, 4-[N-(4-bromobenzyl)-N-(4-cyanophenyl)amino]-4H-1,2,4-triazole], for which the IC50 in data set [1] came to 0.13 nM; in data set [4] (rat ovarian microsomes, in vitro, read-out: IC50, Rat aromatase inhibitory activity (A)), 0.37 nM; in data set [5] it was 2250 nM; in data set [3], 4000 nM. The “Selectivity (B/A)” value in data set [4] (ratio of IC50 for rat aldosterone production to IC50 for rat aromatase) amounted to 6100. Also, the “inhibition … (significance)” value in data set [2] is “did not inhibit aldosterone production significantly”. For the same compound, in data set [6] (read-out: extinction half time (T1/2) (converted)), the half-life is 11 h. In addition, in data set [6] (read-out: maximum value (Cmax) of the concentration of the non-changed compound in the plasma), the Cmax amounted to 2880 ng/mL.

The values above are taken from patent US5674886A, “Triazolylated teritiary amine compound or salt thereof” (Yamanouchi Pharmaceutical Co., Ltd., priority 1991, dated 1997).
